Measured values as given in patent US10106778B2, “Selective targeting of cancer stem cells” (Whitehead Institute for Biomedical Research, priority 2012, dated 2018).

Key:
[1] = test system: NAMECs; assay: Cellular plasticity of NAMECs: differentiation by PGE2 blockade and inhibitor sensitivity; format: cell-based, human; settings: for sensitivity of GW-treated (differentiated) NAMECs: after differentiation with GW627368; for sensitivity of NAMECs relative to parental HMLE cells: undifferentiated NAMECs
Excerpt: NAMECs are phenotypically plastic and can transit between the epithelial and mesenchymal cell state. The cells relied on autocrinal PGE2 signaling for maintenance of the mesenchymal state.

[2] = test system: NAMEC-Tom and HMLE-GFP cells; assay: Kinase inhibitor screen: co-mixed NAMEC-Tom and HMLE-GFP cells, six days of inhibitor, FACS; format: cell-based, human; settings: six days of inhibitor treatment, FACS relative to DMSO
Protocol: (§1) Kinase inhibitors and other chemical compounds were obtained from various sources listed below. These were dissolved or diluted in DMSO. To set up the screen, 75,000 NAMEC-Tom and 15,000 HMLE-GFP cells were seeded into each well of a 6-well tissue culture plate. The following day, spent media was replaced with 3 ml of fresh media. Inhibitors were added to achieve the desired range of concentrations. For control treatment, DMSO was added. Fresh media containing inhibitors were replaced daily during the six day period. For analysis, cells were trypsinized with 1 ml 0.15% trypsin, diluted with 1 ml serum-containing media and fixed with 1 ml of 4% paraformaldehyde. FACS analysis was performed to analyze the proportion of surviving cells relative to DMSO-treated control for NAMEC-Tom or HMLE-GFP cells. To test the effects of these inhibitors on CSCs and non-CSCs, NAMEC-Ras-Tom and […] were used in similar co-mixed experiments.
as §1, with “experiments. To assess the fraction of cells undergoing apoptosis, cells were exposure to agents for three days without fresh media and then analyzed with Annexin V-APC (BD Biosciences).” for “experiments.”
We undertook to identify kinase inhibitors that selectively targeted mesenchymal-like cells including those with stem cell properties. To do so, we established a screen that measured the ability of candidate inhibitors to preferentially deplete NAMECs but not parental HMLE cells from cell cultures. Thus, we labeled NAMECs with the tdTomato red fluorescent protein (NAMEC-Tom) and the HMLE cells with the GFP green fluorescent protein (HMLE-GFP); we then attempted to reconstitute certain stem cell and non-stem cell interactions that might operate in vivo by mixing the two cell populations in 6-well adherent tissue culture plates. One day later, we challenged these cultures with a variety of kinase inhibitors (FIG. 2A).
The robustness of this screen, designed to identify mesenchymal cell-specific inhibitors, was enhanced by seeding NAMEC-Tom and HMLE-GFP cells in a 5:1 ratio. While NAMEC-Tom cells, like others that have passed through an EMT, proliferated marginally more slowly than their epithelial counterparts in culture, their initial advantage in seeding density was compensated over the course of the six day-long assays by the more rapid proliferation of the HMLE-GFP cells (FIG. 11). After six days of treatment, the relative proportions of NAMEC-Tom and HMLE-GFP cells were quantified with fluorescent-activated cell sorting (FACS) to determine the selective effects, if any, of these various inhibitors (FIG. 2A).

[3] = test system: NAMEC-Tom-Ras and HMLE-GFP-Ras cells; assay: Co-mixed NAMEC-Tom-Ras (CSC-enriched) and HMLE-GFP-Ras (CSC-depleted) cells, kinase inhibition, FACS; format: cell-based, human; settings: for which cell type is more sensitive / selected against: dose response, co-mixed cells; for resistance of NAMEC-Tom-Ras cells relative to HMLE-GFP-Ras cells: at LC50, co-mixed cells
Protocol: as §1
as §1, with “experiments. To assess the fraction of cells undergoing apoptosis, cells were exposure to agents for three days without fresh media and then analyzed with Annexin V-APC (BD Biosciences).” for “experiments.”
Having determined that NAMEC-Ras cells were enriched for CSCs, we mixed NAMEC-Ras cells labeled with tdTomato (NAMEC-Tom-Ras) and HMLE-Ras cells labeled with GFP (HMLE-GFP-Ras) and re-tested the effects of kinase inhibition as described above. […] In addition, these NAMEC-Tom-Ras cells were more resistant to paclitaxel (11.3 fold) and staurosporine (32.8 fold) than the corresponding HMLE-GFP-Ras cells used as controls (FIG. 3C).

[4] = test system: NAMEC-Tom cells; assay: Annexin V apoptosis in co-mixed culture, NAMEC-Tom gate; format: cell-based, human; settings: co-mixed cells treated for three days
Protocol: as §1, with “experiments. To assess the fraction of cells undergoing apoptosis, cells were exposure to agents for three days without fresh media and then analyzed with Annexin V-APC (BD Biosciences).” for “experiments.”
(§2) To assess how PKC inhibitors function in these cell populations, we tested whether they induced apoptosis. Thus, the mixed cell populations described above were treated with one of the inhibitors (Ro-31-8220) for three days and assessed with Annexin V, which marks apoptotic cells. 89% of NAMEC-Tom cells underwent apoptosis in comparison to 22.4% of the HMLE-GFP cells (FIG. 2E).

[5] = test system: HMLE-GFP cells; assay: Annexin V apoptosis in co-mixed culture, HMLE-GFP gate; format: cell-based, human; settings: co-mixed cells treated for three days
Protocol: as §1, with “experiments. To assess the fraction of cells undergoing apoptosis, cells were exposure to agents for three days without fresh media and then analyzed with Annexin V-APC (BD Biosciences).” for “experiments.”
as §2

[6] = test system: p-FRA1^S265; assay: Western blot of FRA1 phosphorylation in NAMECs; format: cell-based, human; settings: for effect on phosphorylation of FRA1: applied to NAMECs for 30 min; for total FRA1: within 30 min of treatment
Protocol: (§3) To obtain protein extracts, cells were scraped from culture dishes in chilled PBS, centrifuged at 450×g for 4 min at 4° C., washed again in PBS, and incubated for 20 min in ice cold lysis buffer containing freshly added protease inhibitors (0.5 mM phenylmethylsulfonyl fluoride, 10 μg/ml leupeptin, 2 μg/ml aprotonin). Lysates were cleared by centrifugation at 12,100×g, 4° C. for 10 min and the supernatant was snap frozen in liquid nitrogen. Protein concentrations were determined using Bradford Dye (Bio-Rad). 30 μg total protein was separated by SDS-PAGE on NuPAge gels (Invitrogen), and transferred to Hybond-P PVDF membrane (GE Healthcare). The membrane was probed with specific primary antibodies and antibody-protein complex detected by HRP-conjugated antibodies and ECL-Plus (Amersham Biosciences).
FRA1 is a member of the Fos family of transcription factors, which is also comprised of c-Fos, FosB and Fra2. Together with the Jun family of transcription factors composed of c-Jun, JunB and JunD, individual members of the Fos and Jun family associate with one another to form heterodimeric activator protein-1 (AP-1) complexes that bind and transcriptionally regulate target gene expression when phosphorylated (Eferl and Wagner, 2003).
We assessed whether the observed increased p-FRA1 activity in the mesenchymal cells could be further augmented by elevated ERK signaling during EMT. Accordingly, inhibition of ERK1/2 phosphorylation with a MEK inhibitor was able to decrease p-FRA1^S265 levels by 65% but not the levels of total FRA1 or p-c-Jun (FIG. 5G), confirming that ERK1/2 signaling promoted p-FRA1 activity.

[7] = test system: NAMEC-Ras cells; assay: NAMEC-Ras subcutaneous xenograft, treatment from day of implantation; format: in vivo
Protocol: All research involving animals complied with protocols approved by the MIT Committee on Animal Care. For subcutaneous injections, cells resuspended in 100111 PBS containing 50% Matrigel were injected into both flanks female NOD-SCID mice except for studies involving the in vivo administration of chemical inhibitors where only one flank was implanted. The tumor incidence and weight were measured between 4 and 12 weeks post-injection.
In order to assess the therapeutic benefits of PKCα and SPHK1/2 inhibitors, NOD-SCID mice were xenografted with 5×10^4 NAMEC-Ras cells and treated for 30 days with a daily intraperitoneal dose of either DMSO control, PKCα Inh (5 mg/kg/d), SPHK1/2 Inh (5 mg/kg/d) or PKCα+SPHK1/2 inhibitors (2.5 mg/kg/d of each).

[8] = test system: p-PKCα^S497 and p-PKCα^T638; assay: Western blot of PKCα phosphorylation in NAMECs; format: cell-based, human
Protocol: as §3
We subsequently sought to determine whether PKCα activation was directly dependent upon PDGFR-PLCγ. Exposure of NAMECs to a PLCγ inhibitor (U73122) reduced active p-PKCα^S497 and p-PKCα^T638 by 1.3 and 3.1-fold respectively within 30 min, and 6.3 and 4.2-fold respectively by 60 min (FIG. 13C); total PKCα level was unchanged (FIG. 13C). The inhibition of PDGFR in NAMECs, similarly, led to a loss of PKCα phosphorylation (p-PKCα^S497: 2.8 fold, p-PKCα^T638: 5.9 fold), as illustrated once again by the loss of active p-PKCα^S497 and p-PKCα^T638 within 30 min, while total PKCα remained constant (FIG. 13D).

[9] = test system: p-B-Raf, p-c-Raf, p-MEK1/2 and p-ERK1/2; assay: Western blot of MAPK/ERK signaling in NAMECs; format: cell-based, human; settings: 30 min
Protocol: as §3
We assessed whether mesenchymal cells contained higher Ras expression or activated Ras. […] We assessed whether enhanced ERK signaling in the mesenchymal cell state was primarily mediated through the activated PDGFR and PKCα signaling cascade, rather than through activation via a Ras-Raf pathway. To test this, we exposed NAMECs to PKCα-specific inhibitors for 30 min. This reduced p-B-Raf and p-c-Raf expression, and led to the loss of p-MEK1/2 and p-ERK1/2 (FIG. 5F). […] Therefore, the enhanced activity of ERK signaling during EMT was, in part, conferred by signaling through PDGFR and PKCα.

[10] = 5×10^4 cells, daily intraperitoneal 30 days, 5 mg/kg/d (combination 2.5 mg/kg/d of each), after 15 weeks

## Oc1ccc(Nc2nc(-c3ccc(Cl)cc3)cs2)cc1 [SKI2]
[1]
  sensitivity of GW-treated (differentiated) NAMECs: lost their sensitivity
  sensitivity of NAMECs relative to parental HMLE cells: more sensitive

## COc1cccc2c1C(=O)c1c(O)c3c(c(O)c1C2=O)C[C@@](O)(C(=O)CO)C[C@@H]3O[C@H]1C[C@H](N)[C@H](O)[C@H](C)O1 [doxorubicin]
[2]
  preferential depletion of NAMEC-Tom or HMLE-GFP cells in co-mixed culture: preferentially depleted the epithelial HMLE-GFP cells

## CCOc1c2c(c(OCC)c3ccccc13)C(=O)N(c1ccc(CC(=O)NS(=O)(=O)c3ccccc3)cc1)C2 [GW627368]
[1]; PGE2 inhibition
  protein changes accompanying differentiation: downregulation of p-PKCα and SPHK1/2 proteins
[1]; blocked PGE2 signaling
  morphology of NAMECs: differentiated into an epithelial morphology within three weeks

## O=C(Nc1cccc(Nc2cc(Nc3cccc(C(F)(F)F)c3)ncn2)c1)C1CC1 [EGFR Inh]
[3]
  which cell type is more sensitive / selected against: HMLE-Ras-GFP were more sensitive

## CCCCCCCCc1cccc(NC(=O)[C@H](N)COP(=O)(O)O)c1 [VPC23019]
[3]
  which cell type is more sensitive / selected against: selected against NAMEC-Tom-Ras cells relative to HMLE-GFP-Ras cells in a dose-dependent manner

## CN[C@@H]1C[C@H]2O[C@@](C)([C@@H]1OC)n1c3ccccc3c3c4c(c5c6ccccc6n2c5c31)C(=O)NC4 [staurosporine]
[4]
  apoptosis of NAMEC-Tom cells (Annexin V): 29.7%
[2]
  preferential depletion of NAMEC-Tom or HMLE-GFP cells in co-mixed culture: preferentially depleted the epithelial HMLE-GFP cells
[1]
  sensitivity of GW-treated (differentiated) NAMECs: became sensitive
  sensitivity of NAMECs relative to parental HMLE cells: resistant
[5]
  apoptosis of HMLE-GFP cells (Annexin V): 98%
[3]
  resistance of NAMEC-Tom-Ras cells relative to HMLE-GFP-Ras cells: 32.8 fold

## CC(=O)O[C@H]1C(=O)[C@@]2(C)[C@H]([C@H](OC(=O)c3ccccc3)[C@]3(O)C[C@H](OC(=O)[C@H](O)[C@@H](NC(=O)c4ccccc4)c4ccccc4)C(C)=C1C3(C)C)[C@]1(OC(C)=O)CO[C@@H]1C[C@@H]2O [paclitaxel]
[4]
  apoptosis of NAMEC-Tom cells (Annexin V): 22.3%
[2]
  preferential depletion of NAMEC-Tom or HMLE-GFP cells in co-mixed culture: preferentially depleted the epithelial HMLE-GFP cells
[1]
  sensitivity of GW-treated (differentiated) NAMECs: became sensitive
  sensitivity of NAMECs relative to parental HMLE cells: resistant
[5]
  apoptosis of HMLE-GFP cells (Annexin V): 89%
[3]
  resistance of NAMEC-Tom-Ras cells relative to HMLE-GFP-Ras cells: 11.3 fold

## Cn1cc(C2=C(c3cn(CCCSC(=N)N)c4ccccc34)C(=O)NC2=O)c2ccccc21 [Ro-31-8220]
[6]
  effect on phosphorylation of FRA1: blocked the phosphorylation of FRA1
  total FRA1: unchanged
[7]; [10]
  mice that formed tumors: four of eight
  tumor weight: ~0.16 g
[7]; 30 days of treatment followed by eight weeks of observation
  tolerability in mice: well-tolerated in mice and had no adverse effects
[4]
  apoptosis of NAMEC-Tom cells (Annexin V): 89%
[2]
  preferential depletion of NAMEC-Tom or HMLE-GFP cells in co-mixed culture: diminished NAMEC-Tom cells relative to HMLE-GFP cells
[1]
  sensitivity of GW-treated (differentiated) NAMECs: lost their sensitivity
  sensitivity of NAMECs relative to parental HMLE cells: more sensitive
[5]
  apoptosis of HMLE-GFP cells (Annexin V): 22.4%

## PKC 20-28: PKCα inhibitor, EMD Biosciences 476480 (FARKGALRQ; pseudosubstrate peptide; UniProt P17252 20-28, looked up, fragment)
[2]
  preferential depletion of NAMEC-Tom or HMLE-GFP cells in co-mixed culture: diminished NAMEC-Tom cells relative to HMLE-GFP cells

## COc1ccc2c(c1)CC[C@@H]1[C@@H]2CC[C@]2(C)[C@@H](NCCCCCCN3C(=O)C=CC3=O)CC[C@@H]12 [U73122]
[8]
  effect on PKCα phosphorylation: The upregulation of PKCα phosphorylation by PDGFC was blocked
  total PKCα level: unchanged
[8]; by 60 min
  reduction of p-PKCα^S497: 6.3 fold
  reduction of p-PKCα^T638: 4.2 fold
[8]; within 30 min
  reduction of p-PKCα^S497: 1.3 fold
  reduction of p-PKCα^T638: 3.1 fold

## CN(C)CCCn1cc(C2=C(c3c[nH]c4ccccc34)C(=O)NC2=O)c2ccccc21 [bisindolylmaleimide I]
[6]
  effect on phosphorylation of FRA1: blocked the phosphorylation of FRA1
  total FRA1: unchanged
[2]
  preferential depletion of NAMEC-Tom or HMLE-GFP cells in co-mixed culture: diminished NAMEC-Tom cells relative to HMLE-GFP cells

## CC#CC(=O)Nc1cc2c(Nc3ccc(F)c(Cl)c3)ncnc2cn1 [EGFR Inh III]
[3]
  which cell type is more sensitive / selected against: HMLE-Ras-GFP were more sensitive

## COc1cc2c(cc1OC)-c1[nH]nc(Nc3cccc(F)c3)c1C2 [PDGFR Inh IV]
[8]
  effect on PKCα phosphorylation: reduced phosphorylation of PKCα
[6]
  effect on phosphorylation of FRA1: blocked the phosphorylation of FRA1
[9]
  effect on phospho-proteins of ERK signaling: downregulation of B-Raf and C-Raf phosphorylation, and dampening ERK signaling
[3]
  which cell type is more sensitive / selected against: NAMEC-Ras-Tom cells were more sensitive
